# “And” between values parts separate entries of the source, which are not always exact repeats. Equal entries are not always repeated.
# What was measured:
# [1] = tested on: NP and disc height of patients' IVDs; test: Clinical study, T2-weighted MRI of NP intensity and disc height; assay type: in vivo, human; design: key to Individual scoring of change in NP intensity, Assessor No. 1 / Individual scoring of change in NP intensity, Assessor No. 2 / Individual scoring of change in NP intensity, Assessor No. 3 / Individual scoring of change in NP intensity, Assessor No. 4: 1, clear reduction; 0, no change; settings: for NP intensity change score at T2-weighted MR imaging, Mean ± SD: score 1 clear reduction, 0 no change, 4 assessors
# Experimental: The study was a randomized, double-blinded, placebo-controlled, single ascending dose study with the primary objective to evaluate safety and tolerability following intradiscal injection of LA in Omnipaque or placebo (Omnipaque) in 15 patients with chronic discogenic low back pain. The secondary objective was to assess effects on the NP and disc height using T2-weighted MRI.
# All MRI investigations were performed using the same scanner (Siemens 1.5 T Avanto) with the following exceptions: Baseline MRI for one placebo-treated patient and 2 patients given the high dose was acquired in a Siemens Symphony 1.5 T scanner while all other scans were done in the Siemens 1.5 T Avanto scanner. Also, baseline and 3 month MRI were done in the Symphony scanner while the other scans were done in the Avanto scanner in 2 placebo-treated patients and one patient treated with the high dose. T1- and T2-weighted sagittal, coronal, and transversal sections were acquired at 4 mm before and after injection of gadolinium contrast.
# Disc height measured as the maximal distance between 2 adjacent endplates and Pfirrmann grade were documented at screening and they were followed throughout the study. Since the Pfirrmann criteria are not sensitive enough to detect minor changes in disc hydration, changes in intensity of the NP at T2-weighted MRI were scored by 4 assessors blind to the group assignment of the patients. The assessors were instructed to score no change as “0” and obvious reduction in intensity as “1”, regardless of time after treatment.
# Changes in intensity of the NP at T2-weighted MR imaging were scored as 1, clear reduction and 0, no change. The scoring was done by 4 assessors blind to the group assignment of the patients. Reductions in disc height were observed throughout the study (Table 8).
# porcine NP and AF = test: Macroscopic and histological evaluation of porcine IVD after intradiscal or external LA (series 1 and 2); assay type: in vivo; settings: pig
# Experimental: The pigs were placed on the right side. A 6 cm long incision was made from the costal arch to the iliac crest, just lateral to the lateral processes. The lumbar IVDs were approached by a retroperitoneal technique. The L3/4 IVD was incised and 0.2 mL of the LA-formulation (n=6) or the placebo (n=2) was injected under fluoroscopic guidance. The LA-formulation was composed of LA (120 mg/mL) and iohexol (180 mg I/mL) while placebo consisted of iohexol only. The concentration was determined based on the pilot experiments on the effects of LA on collagen secretion from human NP cells (as described in WO 2017/046030). In this set of in vivo experiments, the pH of the placebo formulation was adjusted to the same as the active formulation (about 1.5) using hydrochloric acid. The adjacent IVDs were not injected and served as negative controls. The volume of the pig NP is about 1 mL and it was estimated that 0.2 mL would be an appropriate injection volume. The height and width of normally appearing NP (FIG. 6a) in the anteroposterior (short vertical double arrow) and bilateral (short horizontal double arrow) directions, respectively, were measured and expressed in relation to the height (long vertical double arrow), and width (long horizontal double arrow) of the IVD. […] The group data for NP height as percent of total IVD height are shown in FIG. 7 and the corresponding data for NP width are illustrated in FIG. 8. Further, the IVD was cut in half and photographed. The bilateral width and anteroposterior height of normally appearing NP was measured and expressed as percent of the total IVD width and height, respectively, as depicted in FIGS. 7 and 8. The aim of the second series (including 16 pigs) was to assess the safety and efficacy of the treatment and was part of the regulatory documentation required by the Swedish Medical Products Agency to initiate studies in humans. All procedures were as described above, with the following exceptions. […] In one group of animals, LA or placebo was applied onto the IVD outside the spinal foramen (external application) to assess any tissue damage resulting from leakage from the IVD or a misdirected injection. Due to this experimental design, spinal flexural stiffness was not measured in these pigs. The only other difference between the two series was that exposed tissues were evaluated histologically in the second but not first series. The lumbar spine was removed en bloc and any pathological changes were assessed macroscopically and photographed in extradiscal tissue onto which LA had been applied. Specimens of spinal nerves and muscle tissue were collected, fixed in 10% formalin, and processed for microscopy with hematoxylin/eosin staining. Injected IVDs were cut in half, inspected macroscopically, and photographed. Samples of the IVD were collected and processed for microscopy with hematoxylin/eosin. These turned out to include AF but very little NP so in order to obtain an improved overview of the IVD, the IVDs with adhering vertebrae were decalcified to enable preparation of axial sections of the whole IVD which were stained with Massons's trichrome. FIG. 9 illustrates effects of LA on the AF (A,B) and NP (C-J). LA or placebo (0.2 mL) was injected into IVDs of anesthetized pigs. The animals were sacrificed 4 or 12 weeks post injection and the IVDs were sectioned in half. After fixation in 10% formalin, decalcification and paraffin embedding, sections were cut at 5 μm and stained with hematoxylin&eosin (A,B) or Masson's trichrome (C-J). Fibrocartilagenous cells can be seen in the AF from untreated IVDs (arrows in A) but frequently, multicellular chondrons appeared after injection of LA (240 mg/mL, 12 weeks survival; arrows in B). NP of an untreated (extradiscal injection) IVD (C) consists of islets of notochordal cells (asterisk) embedded in weakly stained extracellular matrix. In LA-treated NP, collagenous fibers can be seen (asterisks in D; 120 mg/mL LA, 4 weeks survival and E; 120 mg/mL LA, 12 weeks survival). […]
# [2] = LA concentration 30, individual patients and IVDs
# [3] = LA concentration 60, individual patients and IVDs
# [4] = LA concentration 120, individual patients and IVDs
structure (smiles),measurement,setting,value
"CC(O)C(=O)O (stereo not shown) [LA, lactic acid]","NP intensity change score, Median",[1]; LA 30 mg/mL,0
same,Disc height change from baseline (mm) Mean ± SD,"[1]; LA 30 mg/mL, 3 months",0.3 ± 1.3 mm
same,Disc height change from baseline (mm) Mean ± SD,"[1]; LA 30 mg/mL, 6 months",−0.5 ± 0.7 mm
same,Disc height change from baseline (mm) Mean ± SD,"[1]; LA 30 mg/mL, 12 months",−0.5 ± 0.7 mm
same,"NP intensity change score at T2-weighted MR imaging, Mean ± SD",[1]; LA 30 mg/mL,0.4 ± 0.5
same,"NP intensity change score, Median",[1]; LA 60 mg/mL,1
same,Disc height change from baseline (mm) Mean ± SD,"[1]; LA 60 mg/mL, 3 months",−1.0 ± 0.7 mm
same,Disc height change from baseline (mm) Mean ± SD,"[1]; LA 60 mg/mL, 6 months",−0.8 ± 0.8 mm
same,Disc height change from baseline (mm) Mean ± SD,"[1]; LA 60 mg/mL, 12 months",−1.2 ± 0.8 mm
same,"NP intensity change score at T2-weighted MR imaging, Mean ± SD",[1]; LA 60 mg/mL,1.0 ± 0.0
same,"NP intensity change score, Median",[1]; LA 120 mg/mL,1
same,Disc height change from baseline (mm) Mean ± SD,"[1]; LA 120 mg/mL, 3 months",−1.2 ± 1.1 mm
same,Disc height change from baseline (mm) Mean ± SD,"[1]; LA 120 mg/mL, 6 months",−1.4 ± 1.1 mm
same,Disc height change from baseline (mm) Mean ± SD,"[1]; LA 120 mg/mL, 12 months",−1.8 ± 1.3 mm
same,"NP intensity change score at T2-weighted MR imaging, Mean ± SD",[1]; LA 120 mg/mL,0.9 ± 0.3
same,"Individual scoring of change in NP intensity, Assessor No. 1",[1]; [2],0 (2×) and 1 (2×)
same,"Individual scoring of change in NP intensity, Assessor No. 2",[1]; [2],0 (3×) and 1
same,"Individual scoring of change in NP intensity, Assessor No. 3",[1]; [2],0 (2×) and 1 (2×)
same,"Individual scoring of change in NP intensity, Assessor No. 4",[1]; [2],0 (2×) and 1 (2×)
same,"Individual scoring of change in NP intensity, Assessor No. 1",[1]; [3],1
same,"Individual scoring of change in NP intensity, Assessor No. 2",[1]; [3],1
same,"Individual scoring of change in NP intensity, Assessor No. 3",[1]; [3],1
same,"Individual scoring of change in NP intensity, Assessor No. 4",[1]; [3],1
same,"Individual scoring of change in NP intensity, Assessor No. 1",[1]; [4],1
same,"Individual scoring of change in NP intensity, Assessor No. 2",[1]; [4],1 (3×) and 0 (2×)
same,"Individual scoring of change in NP intensity, Assessor No. 3",[1]; [4],1
same,"Individual scoring of change in NP intensity, Assessor No. 4",[1]; [4],1
same,% decrease in disc height,"[1]; lactic acid 30 mg/mL, 3 months",+3%
same,% decrease in disc height,"[1]; lactic acid 30 mg/mL, 6 months",5%
same,% decrease in disc height,"[1]; lactic acid 30 mg/mL, 12 months",5%
same,% decrease in disc height,"[1]; lactic acid 60 mg/mL, 3 months",11%
same,% decrease in disc height,"[1]; lactic acid 60 mg/mL, 6 months",8%
same,% decrease in disc height,"[1]; lactic acid 60 mg/mL, 12 months",13%
same,% decrease in disc height,"[1]; lactic acid 120 mg/mL, 3 months",11%
same,% decrease in disc height,"[1]; lactic acid 120 mg/mL, 6 months",12%
same,% decrease in disc height,"[1]; lactic acid 120 mg/mL, 12 months",16%
same,Change in IVD width,"[1]; patients, after treatment (not shown)",no change in IVD width
same,Fibrotic changes at sites of extradiscal administration,"porcine NP and AF; 28-day follow-up, external 120 mg/mL",No fibrotic changes
same,Histological changes of the NP,"porcine NP and AF; 28-day follow-up, intradiscal 120 or 240 mg/mL",Dense bundles of fibrotic tissue
same,NP size (macroscopic),porcine NP and AF; 28 and 84 days after LA treatment vs normally appearing NP,reduction in NP size
same,Histological changes of the NP,"porcine NP and AF; 84-day follow-up, intradiscal 120 or 240 mg/mL","sclerosis (FIG. 9D-J), cystic degeneration (FIG. 9J), cartilaginous metaplasia (FIG. 9F, 9G), osteoid islands (FIG. 9F, 9G) and reduction in the extracellular matrix"
same,Histological changes of the NP,porcine NP and AF; two days after intradiscal injection,marked histological changes characterized by lysis of the extracellular matrix
same,"Hemorrhage and inflammatory changes, LA vs vehicle","porcine NP and AF; two-day follow up, intradiscal injection",not obviously more marked
